For 25 compounds, IC50 results are on record in patent US6432922B1 (Corvas International, Inc., priority 1998, dated 2002).

Read-outs that look alike come from different tables or passages of the source. Starred links: 1 amine or outer side, 2 acyl side, 3 side chain; linkers in the order of their positions; H or OH if unused. Non-standard residues stand in square brackets, D forms with d. Residues, ends and D or L forms follow the SMILES beside them. *: point of attachment. Fmoc = O=C(OCC1c2ccccc2-c2ccccc21)*; d(aThr) = C[C@@H](O)[C@@H](N)C(=O)O; NMeA = CN[C@@H](C)C(=O)O; dDap = NC[C@@H](N)C(=O)O; Cbz = O=C(OCc1ccccc1)*; CO = O=C([*:1])[*:2]; NHBn = c1ccc(CN*)cc1; Sar = CNCC(=O)O; Moc = COC(=O)*

The target of one assay is T1, Human rt-PA (Activase) (Homo sapiens, UniProt P00750).
T1 construct: purchased Genentech Inc
The experiment in a line: Recombinant tissue plasminogen activator (rt-PA) chromogenic assay. Conditions: 30 minute preincubation, HBSA buffer; read-out: tPA IC50. Format: biochemical. The procedure:
rt-PA catalytic activity was determined using the substrate, Pefachrome t-PA (CH3SO2-D-hexahydrotyrosine-glycyl-L-arginine-p-nitroaniline, obtained from Pentap harm Ltd.). The substrate was made up in deionized water followed by dilution in HBSA prior to the assay in which the final concentration was 500 micromolar (about 3-times Km). Human rt-PA (Activase®) was obtained from Genentech Inc. The enzyme was reconstituted in deionized water and diluted into HBSA prior to the assay in which the final concentration was 1.0 nM.

The target of a further assay is T2, human plasmin (Homo sapiens, UniProt P00747).
T2 construct: purchased Enzyme Research Laboratories, Inc
Briefly: Plasmin chromogenic substrate (S-2366) assay. Format: biochemical. Conditions: 30 minute preincubation, HBSA buffer. As for the experimental part: The substrate was made up in deionized water followed by dilution in HBSA prior to the assay in which the final concentration was 300 micromolar (about 2.5-times Km). Purified human plasmin was obtained from Enzyme Research Laboratories, Inc. The enzyme was diluted into HBSA prior to assay in which the final concentration was 1.0 nM.

The target in a further assay is Urokinase (Abbokinase) (Homo sapiens, UniProt P00749). Briefly: Urokinase chromogenic substrate (S-2444) IC50 assay.
The mark [1] stands for this setting: read-out: uPA IC50, 30 minute preincubation, HBSA buffer.

T2 sequence (P00747 581-810 limits assumed): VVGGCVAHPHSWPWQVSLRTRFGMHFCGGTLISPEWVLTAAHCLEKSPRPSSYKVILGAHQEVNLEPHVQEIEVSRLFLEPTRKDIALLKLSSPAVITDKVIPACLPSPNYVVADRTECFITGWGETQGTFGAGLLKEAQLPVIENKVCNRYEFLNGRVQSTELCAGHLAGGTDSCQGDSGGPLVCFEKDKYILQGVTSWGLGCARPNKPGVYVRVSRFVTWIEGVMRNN
T2 sequence (P00747 97-580 partner limits assumed): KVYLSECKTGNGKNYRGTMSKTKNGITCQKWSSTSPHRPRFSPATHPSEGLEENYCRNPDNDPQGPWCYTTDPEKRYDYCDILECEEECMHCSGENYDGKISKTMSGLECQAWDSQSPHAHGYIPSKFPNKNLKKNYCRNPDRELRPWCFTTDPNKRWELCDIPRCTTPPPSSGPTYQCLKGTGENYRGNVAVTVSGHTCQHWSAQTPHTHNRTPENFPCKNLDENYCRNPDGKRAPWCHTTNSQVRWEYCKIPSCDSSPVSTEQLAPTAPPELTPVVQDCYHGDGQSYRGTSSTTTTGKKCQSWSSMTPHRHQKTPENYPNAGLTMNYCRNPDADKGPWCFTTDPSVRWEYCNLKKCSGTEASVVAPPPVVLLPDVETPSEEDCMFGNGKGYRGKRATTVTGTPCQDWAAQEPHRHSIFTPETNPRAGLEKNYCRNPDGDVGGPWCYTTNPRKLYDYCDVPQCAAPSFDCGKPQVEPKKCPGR
T1 sequence (P00750 36-562): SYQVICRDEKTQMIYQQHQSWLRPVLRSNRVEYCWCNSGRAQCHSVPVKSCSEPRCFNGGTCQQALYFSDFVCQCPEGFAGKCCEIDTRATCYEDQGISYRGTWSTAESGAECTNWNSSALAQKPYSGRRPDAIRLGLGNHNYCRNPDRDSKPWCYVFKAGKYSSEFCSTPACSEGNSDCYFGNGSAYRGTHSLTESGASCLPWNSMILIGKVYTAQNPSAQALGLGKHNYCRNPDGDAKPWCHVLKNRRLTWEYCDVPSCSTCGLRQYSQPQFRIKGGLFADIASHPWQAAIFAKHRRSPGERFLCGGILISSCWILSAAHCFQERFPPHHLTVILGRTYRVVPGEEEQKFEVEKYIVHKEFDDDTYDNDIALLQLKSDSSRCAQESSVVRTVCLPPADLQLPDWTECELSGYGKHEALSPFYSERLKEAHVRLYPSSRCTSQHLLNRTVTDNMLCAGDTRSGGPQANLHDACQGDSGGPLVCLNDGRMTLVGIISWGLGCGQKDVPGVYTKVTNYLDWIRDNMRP
Procedure for Urokinase (Abbokinase): The buffer used for all assays was HBSA (10 mM HEPES, pH 7.5, 150 mM sodium chloride, 0.1% bovine serum albumin).
The initial velocity of chromogenic substrate hydrolysis was measured by the change in absorbance at 405 nm using a Thermo Max® Kinetic Microplate Reader over a 5 minute period in which less than 5% of the added substrate was utilized.
The assay buffer was HBS (10mM HEPES, 150mM sodium chloride pH 7.4) with 0.1% BSA.

As usually defined, the IC50 is the concentration that gives 50% inhibition. For `COC(=O)NC[C@@H](NC(=O)OCc1ccccc1)C(=O)N[C@@H](C)C(=O)N[C@H](C=O)CCCNC(=N)N` [Compound 43, N-α-benzyloxycarbonyl-N-β-methyloxycarbonyl-D-2,3-diaminopropionyl-alanyl-argininal] (Cbz-[dDap](Moc)-Ala-Arg-aldehyde), the IC50 was over 2500 nM on Human rt-PA (Activase), 250 to 2500 nM against human plasmin and 250 to 2500 nM against Urokinase (Abbokinase).
On to `CSC[C@H](NC(=O)[C@@H](CO)NC(=O)OCc1ccccc1)C(=O)N[C@H](C=O)CCCNC(=N)N` [Compound 15, benzyloxycarbonyl-D-seryl-S-methylcysteinyl-argininal] (Cbz-[dS]-Cys(Me)-Arg-aldehyde), for which the IC50 was over 2500 nM at Human rt-PA (Activase) and 100 to 250 nM on Urokinase (Abbokinase).
In the case of `C[C@H](NC(=O)[C@@H](CO)NC(=O)NCc1ccccc1)C(=O)N[C@H](C=O)CCCNC(=N)N` [Compound 38, benzylazacarbonyl-D-seryl-alanyl-argininal] ({NHBn-CO}-[dS]-Ala-Arg-aldehyde), the IC50 was over 2500 nM at Human rt-PA (Activase), over 2500 nM at human plasmin and 100 to 250 nM against Urokinase (Abbokinase).
Turning to `C[C@H](NC(=O)[C@@H](CO)NS(=O)(=O)CCc1ccccc1)C(=O)N[C@H](C=O)CCCNC(=N)N` [Compound 47, 2-phenylethylsulfonyl-D-seryl-alanyl-argininal], the results for the IC50 on Human rt-PA (Activase), against human plasmin and against Urokinase (Abbokinase) were over 2500 nM, 250 to 2500 nM and under 100 nM, respectively.
With `C[C@H](NC(=O)[C@H](NC(=O)OCc1ccccc1)[C@H](C)O)C(=O)N[C@H](C=O)CCCNC(=N)N` [Compound 22, benzyloxycarbonyl-D-threonyl-alanyl-argininal] (Cbz-[dT]-Ala-Arg-aldehyde), the IC50 at Human rt-PA (Activase) was over 2500 nM; against Urokinase (Abbokinase), 250 to 2500 nM.
As to `CN(CC(=O)N[C@H](C=O)CCCNC(=N)N)C(=O)[C@@H](CO)NC(=O)OCc1ccccc1` [Compound 18, benzyloxycarbonyl-D-seryl-sarcosyl-argininal] (Cbz-[dS]-[Sar]-Arg-aldehyde), the half-maximal inhibitory concentration (IC50) is over 2500 nM at Human rt-PA (Activase) and 250 to 2500 nM on Urokinase (Abbokinase).
For `CC[C@H](NC(=O)[C@@H](CO)NC(=O)OCc1ccccc1)C(=O)N[C@H](C=O)CCCNC(=N)N` [Compound 14], in that order: over 2500 nM and under 100 nM.
With `C[C@@H](O)[C@@H](NC(=O)OCc1ccccc1)C(=O)N(C)CC(=O)N[C@H](C=O)CCCNC(=N)N` [Compound 24, benzyloxycarbonyl-D-allothreonyl-sarcosyl-argininal] (Cbz-[d(aThr)]-[Sar]-Arg-aldehyde), the IC50 against Urokinase (Abbokinase) was in the range of 100 to 250 nM.
As for `N=C(N)NCCC[C@@H](C=O)NC(=O)[C@@H]1CCCCN1C(=O)[C@@H](CO)NC(=O)OCc1ccccc1` [Compound 13], the concentration for half-maximal inhibition (IC50) is over 2500 nM at Human rt-PA (Activase) and 100 to 250 nM against Urokinase (Abbokinase).
As to `N=C(N)NCCCC(C=O)NC(=O)C1CCN1C(=O)C(CO)NS(=O)(=O)c1ccccc1` [Compound 31, benzenesulfonyl-D-seryl-azetidyl-argininal], the IC50 was 250 to 2500 nM at human plasmin and under 100 nM at Urokinase (Abbokinase) (setting [1]).
In the case of `CCCCOC(=O)N[C@H](CO)C(=O)N[C@@H](C)C(=O)N[C@H](C=O)CCCNC(=N)N` [Compound 9, n-butyloxycarbonyl-D-seryl-alanyl-argininal], the half-inhibitory concentration (IC50) at Human rt-PA (Activase) is over 2500 nM; against Urokinase (Abbokinase) it was under 100 nM.
Turning to `COC(=O)N[C@H](CO)C(=O)N[C@@H](C)C(=O)N[C@H](C=O)CCCNC(=N)N` [Compound 8, methyloxycarbonyl-D-seryl-alanyl-argininal] (Moc-[dS]-Ala-Arg-aldehyde), the IC50 on Human rt-PA (Activase) is over 2500 nM; against Urokinase (Abbokinase), under 100 nM.
Regarding `C[C@H](NC(=O)[C@@H](NC(=O)OCc1ccccc1)[C@@H](C)O)C(=O)N[C@H](C=O)CCCNC(=N)N` [Compound 20, benzyloxycarbonyl-threonyl-alanyl-argininal] (Cbz-Thr-Ala-Arg-aldehyde), the values for the IC50 on Human rt-PA (Activase) and on Urokinase (Abbokinase) were over 2500 nM and 100 to 250 nM, respectively.
For `C[C@H](NC(=O)[C@@H](CO)NC(=O)OCC1c2ccccc2-c2ccccc21)C(=O)N[C@H](C=O)CCCNC(=N)N` [Compound 10, Fluorenylmethyloxycarbonyl-D-seryl-alanyl-argininal] (Fmoc-[dS]-Ala-Arg-aldehyde), in that order: over 2500 nM and under 100 nM.
For the compound `C[C@H](NC(=O)[C@@H](CO)NC(=O)Oc1ccc2ccccc2c1)C(=O)N[C@H](C=O)CCCNC(=N)N` [Compound 4, 2-naphthyloxy-carbonyl-D-seryl-alanyl-argininal], the IC50 was over 2500 nM at Human rt-PA (Activase) and under 100 nM against Urokinase (Abbokinase).
On Urokinase (Abbokinase), `C[C@H](NC(=O)[C@@H](C)NC(=O)OCc1ccccc1)C(=O)N[C@H](C=O)CCCNC(=N)N` [Compound 21, benzyloxycarbonyl-D-alanyl-alanyl-argininal] (Cbz-[dA]-Ala-Arg-aldehyde) yielded an IC50 of 100 to 250 nM.
Regarding `CCCC(NC(=O)[C@@H](CO)NC(=O)OCc1ccccc1)C(=O)NC(C=O)CCCNC(=N)N` (some centres unmarked) [Compound 16], the figures for the IC50 on Human rt-PA (Activase) and on Urokinase (Abbokinase) were over 2500 nM and 100 to 250 nM, respectively.
On to `CCCCC(CC)COC(=O)N[C@H](CO)C(=O)N[C@@H](C)C(=O)N[C@H](C=O)CCCNC(=N)N` (stereo partly drawn) [Compound 6, 2-ethylhexyloxy-carbonyl-D-seryl-alanyl-argininal], for which the IC50 is over 2500 nM on Human rt-PA (Activase) and under 100 nM on Urokinase (Abbokinase).
On to `C[C@H](NC(=O)[C@@H](CO)NC(=O)Oc1ccccc1)C(=O)N[C@H](C=O)CCCNC(=N)N` [Compound 5, phenoxycarbonyl-D-seryl-alanyl-argininal], for which the IC50 on Human rt-PA (Activase) was over 2500 nM; at Urokinase (Abbokinase), under 100 nM.
For `C[C@H](O)[C@@H](NC(=O)OCc1ccccc1)C(=O)N1CCC[C@H]1C(=O)N[C@H](C=O)CCCNC(=N)N` [Compound 26, benzyloxycarbonyl-D-threonyl-prolyl-argininal] (Cbz-[dT]-Pro-Arg-aldehyde), in that order: over 2500 nM and 100 to 250 nM.
Turning to `CC1CCC(C(C)C)C(OC(=O)N[C@H](CO)C(=O)N[C@@H](C)C(=O)N[C@H](C=O)CCCNC(=N)N)C1` (single isomer, unassigned; (+)) [Compound 7, (+)menthyloxy-carbonyl-D-seryl-alanyl-argininal], the 50% inhibitory concentration (IC50) is over 2500 nM on Human rt-PA (Activase) and under 100 nM against Urokinase (Abbokinase).
Turning to `C[C@@H](O)[C@@H](NC(=O)OCc1ccccc1)C(=O)N(C)[C@@H](C)C(=O)N[C@H](C=O)CCCNC(=N)N` [Compound 25, benzyloxycarbonyl-D-allothreonyl-N-methylalanyl-argininal] (Cbz-[d(aThr)]-[NMeA]-Arg-aldehyde), the IC50 against Urokinase (Abbokinase) is 100 to 250 nM.
On to `N=C(N)NCCCC(C=O)NC(=O)CNC(=O)[C@@H](CO)NC(=O)OCc1ccccc1` (some centres unmarked) [Compound 17], for which the IC50 at Human rt-PA (Activase) is over 2500 nM; at Urokinase (Abbokinase), 100 to 250 nM.
As to `CC1CCC(C(C)C)C(OC(=O)N[C@H](CO)C(=O)N[C@@H](C)C(=O)N[C@H](C=O)CCCNC(=N)N)C1` (single isomer, unassigned; (-)) [Compound 3, (−)menthyloxy-carbonyl-D-seryl-alanyl-argininal], the results for the IC50 on Human rt-PA (Activase) and at Urokinase (Abbokinase) (setting [1]) were over 2500 nM and under 100 nM, respectively.
Turning to `C[C@H](NC(=O)[C@H](CO)NC(=O)OCc1ccccc1)C(=O)N[C@H](C=O)CCCNC(=N)N` [Compound 23, benzyloxycarbonyl-seryl-alanyl-argininal] (Cbz-Ser-Ala-Arg-aldehyde), the IC50 is over 2500 nM on Human rt-PA (Activase) and 250 to 2500 nM on Urokinase (Abbokinase).
